According to patent US20090055964A1, “MPO1 GENE AND PROTEIN AND METHODS OF USE” (priority 2006, published 2009):

Key:
NCCCN = assay: purified protein, by the assay type; conditions: other: substrate kinetics, Lineweaver-Burk plots, three independent extracts; 18.0 °C
Method: Mid-log phase Rosetta/pJGJ389 cells were cultured overnight in LB media supplemented with 100 ug/ml Ampicillin, 30 ug/ml Chloramphenicol, and 0.2 mM isopropyl-β-D-thiogalactoside at 18° C. at 250 rpm. The cells were pelleted, lysed, and the native protein extract incubated with Ni-NTA superflow resin, and the TRX-MPO1 was eluted as per manufacture's instructions (Qiagen, Valencia, Calif.). The TRX-MPO1 enriched extract was mixed 1:1 (v:v) with 100% glycerol and stored at −20° C. […] Background-corrected diamine oxidase rates were graphed as Lineweaver-Burk plots in order to estimate the Vmax and Km of the recombinant TRX -NtMPO1 fusion protein isolated from three independent extracts.

[1] = target: T1, recombinant TRX-NtMPO1 fusion protein (Nicotiana tabacum, UniProt A0A1S4BDC4); assay: spectrophotometric amine oxidase assay of recombinant TRX-NtMPO1 with diamine substrates; conditions: for Vmax: substrate kinetics, Lineweaver-Burk plots, three independent extracts
T1 sequence (A0A1S4BDC4 1-790): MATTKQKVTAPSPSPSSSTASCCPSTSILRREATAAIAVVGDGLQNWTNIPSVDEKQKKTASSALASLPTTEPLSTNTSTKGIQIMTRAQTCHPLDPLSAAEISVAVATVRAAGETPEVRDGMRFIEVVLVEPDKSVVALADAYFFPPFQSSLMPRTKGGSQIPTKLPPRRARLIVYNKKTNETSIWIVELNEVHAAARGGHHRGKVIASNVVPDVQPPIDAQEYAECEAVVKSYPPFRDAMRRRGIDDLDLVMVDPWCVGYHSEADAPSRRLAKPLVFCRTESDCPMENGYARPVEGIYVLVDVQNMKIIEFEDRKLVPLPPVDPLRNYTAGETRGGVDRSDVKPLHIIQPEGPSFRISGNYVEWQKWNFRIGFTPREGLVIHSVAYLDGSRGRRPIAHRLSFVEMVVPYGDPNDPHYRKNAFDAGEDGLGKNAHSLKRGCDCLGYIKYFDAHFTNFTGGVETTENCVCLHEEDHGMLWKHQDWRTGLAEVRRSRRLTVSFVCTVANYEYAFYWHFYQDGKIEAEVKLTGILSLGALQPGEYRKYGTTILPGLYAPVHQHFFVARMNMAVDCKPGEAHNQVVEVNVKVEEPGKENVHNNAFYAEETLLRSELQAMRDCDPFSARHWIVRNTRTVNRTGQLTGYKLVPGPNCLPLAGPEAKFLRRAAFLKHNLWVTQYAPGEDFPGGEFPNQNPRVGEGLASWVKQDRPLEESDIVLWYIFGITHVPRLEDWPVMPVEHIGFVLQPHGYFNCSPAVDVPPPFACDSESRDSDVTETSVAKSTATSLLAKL
Method: This modified fragment was cloned into pCR2.1 (Invitrogen) to yield pJGJ367. […] Finally, a 2.6 Kb NcoI-XhoI (partial) fragment was cut from pJGJ369 and ligated into pET32a+ similarly cut, to yield pJGJ389. Plasmid pJGJ389 was transformed into the Rosetta E. coli strain (Novagen, Madison, Wis.) for expression of a recombinant […] protein. Mid-log phase Rosetta/pJGJ389 cells were cultured overnight in LB media supplemented with 100 ug/ml Ampicillin, 30 ug/ml Chloramphenicol, and 0.2 mM isopropyl-β-D-thiogalactoside at 18° C. at 250 rpm. The cells were pelleted, lysed, and the native protein extract incubated with Ni-NTA superflow resin, and the TRX-MPO1 was eluted as per manufacture's instructions (Qiagen, Valencia, Calif.). The TRX-MPO1 enriched extract was mixed 1:1 (v:v) with 100% glycerol and stored at −20° C.

Compound: recombinant TRX-NtMPO1 fusion protein (Nicotiana tabacum)
- Km (NCCCN): 350 ± 30 µM
- Vmax (NCCCN): 0.7 µM/min
- Vmax/Km (NCCCN): 0.00193 min⁻¹

Compound: NCCCCN [putrescine]
- Vmax [1]: 0.0007 ± 0.0001 mM/min

Compound: NCCCCCN [cadaverine]
- Vmax [1]: 0.0003 ± 0.00004 mM/min

Compound: CNCCCCN [N-methylputrescine, N-methyl-1,4 diaminebutane]
- Vmax [1]: 0.0017 ± 0.0001 mM/min

Compound: NCCCN [1,3-diamine propane, 1,3-diaminepropane]
- oxidative deamination as substrate by recombinant TRX-MPO1 ([1]; qualitative, different kinetics for each substrate): oxidatively deaminated
